Patent publication US20110281804A1, “PEPTIDIC AND PEPTIDOMIMETIC COMPOUNDS FOR REGULATING AUTOPHAGY” (FONDAZIONE SANTA LUCIA, priority 2008, published 2011)

How the values were obtained:
HEK293 cells = assay: Autophagy induction by peptides in HEK293 cells, Western blot of LC3 and p62; assay type: cell-based; conditions: 1-16 hours; for level of autophagy induced by the treatment: peptide 100-200 μM in culture medium, Western blot of LC3 and p62
Excerpt: In order to deregulate the AMBRA1-DLC1 interaction, three peptides (SEQ ID NO:1, SEQ ID NO:2 and SEQ ID NO:3) were selected for their likelihood to maintain the α-helix structure. SEQ ID NO:3 and SEQ ID NO:1 presented substitutions of the neutral residues of leucine into lysine, to increase the charge of the peptides (FIG. 5). The three peptides were synthesized in vitro with the addition of 11 arginine residues at the N-terminus and they were covalently conjugated with the FITC fluorochrome. The arginine residues allow an efficient incorporation of the peptides within the cells, whereas the FITC allows visualization of the peptides inside the cells and permit to monitor their stability upon time. Increasing doses of the peptides, respectively SEQ ID NO:3, SEQ ID NO:1 and SEQ ID NO:2 (100-200 μM) were added to the culture medium of HEK293 cells for increasing time (1-16 hours). The level of autophagy induced by the treatment was monitored by Western blot analyses of known markers of this process, such as LC3 and p62. […] Although limited, this effect is somewhat more desirable than stronger effects, because it avoids massive autophagy that would likely results in cell death in vivo.
Proteins were separated on NuPAGE Bis-Tris gel (Invitrogen) and electroblotted onto nitrocellulose (Protran, Schleicher & Schuell) or PVDF (Millipore) membranes. Blots were incubated with primary antibodies in 5% non-fat dry milk in TBS plus 0,1% Tween20 overnight at 4° C. Detection was achieved using horseradish peroxidase-conjugate secondary antibody (Biorad) and visualised with ECL plus (Amersham Bioscience).

AMBRA1-DIC interaction = assay: Co-immunoprecipitation of AMBRA1 with dynein intermediate chain (DIC) after microtubule disruption; assay type: cell-based, human; conditions: drugs which interfere with microtubule polymerisation
Experimental: To this end, coimmunoprecipitation experiments were performed in 2F cells, using an antibody specific for the dynein intermediate chain (DIC). It was observed that, under control conditions, AMBRA1 is associated with DIC and is therefore part of the wider dynein machinery (FIG. 2b, third lane). […] DIC immunodepletion experiments confirmed that AMBRA1 is still associated with DLC1 after being released from DIC. On the other hand, only a fraction of DLC1 interacts with AMBRA1, since most DLC1 is still present in the complex, where it plays alternative functions (FIG. 2b).
It was then checked whether disruption of the microtubule network could interfere with the dynamics of AMBRA1 binding to the dynein motor complex.
In immunoprecipitation experiments, cells or tissues were lysed in HEMG buffer (25 mM Hepes pH 8.0, 100 mM NaCl, 25 mM MgCl2, 0.5% Triton X-100, 0.1 mM EDTA 10% glycerol) plus protease and phosphatase inhibitors (Protease inhibitor cocktail plus 1mM Sodium Fluoride, 1 mM Sodium orthovanadate, 1 mM Sodium molibdate; Sigma-Aldrich). […]

MyD88 = MyD88 (Homo sapiens, UniProt Q99836); conditions: Loiarro et al., J. Leukocyte Biology 2007; cited from earlier work
Chain of MyD88 (Q99836 whole entry, species assumed): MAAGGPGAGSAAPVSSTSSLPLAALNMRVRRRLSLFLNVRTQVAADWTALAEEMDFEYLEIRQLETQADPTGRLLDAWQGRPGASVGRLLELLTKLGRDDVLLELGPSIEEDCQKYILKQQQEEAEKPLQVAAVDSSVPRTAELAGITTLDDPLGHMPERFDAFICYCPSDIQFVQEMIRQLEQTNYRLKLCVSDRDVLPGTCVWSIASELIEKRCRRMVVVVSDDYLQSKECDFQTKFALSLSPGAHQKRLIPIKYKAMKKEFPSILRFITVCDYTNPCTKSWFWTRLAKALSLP

[1] = biological target: AMBRA1 full length (human, wild type) (UniProt Q9C0C7)
Chain of AMBRA1 full length (human, wild type) (Q9C0C7 other isoform, or with tags, fused parts or gaps): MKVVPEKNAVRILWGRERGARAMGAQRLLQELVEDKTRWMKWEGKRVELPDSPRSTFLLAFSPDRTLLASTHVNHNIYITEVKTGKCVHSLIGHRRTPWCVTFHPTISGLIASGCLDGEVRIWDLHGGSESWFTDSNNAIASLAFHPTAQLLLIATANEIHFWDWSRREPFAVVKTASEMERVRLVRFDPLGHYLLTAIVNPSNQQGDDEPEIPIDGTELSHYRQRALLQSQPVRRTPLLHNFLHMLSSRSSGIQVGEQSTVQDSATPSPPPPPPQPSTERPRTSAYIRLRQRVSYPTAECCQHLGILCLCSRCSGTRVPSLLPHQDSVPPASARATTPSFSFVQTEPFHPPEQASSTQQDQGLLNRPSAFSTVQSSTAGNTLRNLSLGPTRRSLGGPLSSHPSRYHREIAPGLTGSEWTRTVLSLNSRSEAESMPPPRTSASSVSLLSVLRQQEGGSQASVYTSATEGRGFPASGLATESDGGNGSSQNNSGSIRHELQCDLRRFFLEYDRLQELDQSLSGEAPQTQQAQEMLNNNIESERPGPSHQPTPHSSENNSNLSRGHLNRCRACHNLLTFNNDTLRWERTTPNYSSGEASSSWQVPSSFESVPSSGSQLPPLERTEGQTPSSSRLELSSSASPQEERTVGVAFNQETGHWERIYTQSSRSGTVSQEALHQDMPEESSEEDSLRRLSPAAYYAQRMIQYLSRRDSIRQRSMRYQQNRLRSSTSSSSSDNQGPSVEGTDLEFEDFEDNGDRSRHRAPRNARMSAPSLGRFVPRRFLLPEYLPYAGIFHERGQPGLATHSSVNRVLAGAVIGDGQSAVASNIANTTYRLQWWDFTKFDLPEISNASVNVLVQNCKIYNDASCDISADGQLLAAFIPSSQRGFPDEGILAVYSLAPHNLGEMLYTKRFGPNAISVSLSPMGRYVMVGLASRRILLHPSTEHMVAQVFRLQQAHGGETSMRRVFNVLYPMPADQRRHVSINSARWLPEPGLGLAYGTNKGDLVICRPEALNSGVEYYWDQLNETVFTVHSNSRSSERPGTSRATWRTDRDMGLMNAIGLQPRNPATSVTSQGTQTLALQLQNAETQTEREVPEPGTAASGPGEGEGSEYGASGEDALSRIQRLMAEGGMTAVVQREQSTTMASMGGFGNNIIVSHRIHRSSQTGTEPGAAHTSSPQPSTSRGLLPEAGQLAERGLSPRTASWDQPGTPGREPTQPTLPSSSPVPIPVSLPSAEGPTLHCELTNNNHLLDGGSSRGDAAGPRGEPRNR

Row | Molecule | level of autophagy induced by the treatment (HEK293 cells) | AMBRA1-DIC interaction (AMBRA1-DIC interaction) | also measured
1 | SEQ ID NO:3: Peptide selected to maintain α-helix structure; leucine residues substituted into lysine to increase charge (TQTKAKQKQNAETQTER; listed as Homo sapiens) | not so effective at the doses used | – | –
2 | COC(=O)Nc1nc2ccc(C(=O)c3cccs3)cc2[nH]1 [Nocodazole] | – | did not impair | –
3 | NC(=O)[C@H]1CCS[C@@H]2C[C@]3(CCCN3C(=O)Cc3ccc(NC(=O)COc4ccc(Cl)cc4Cl)cc3)C(=O)N12 [ST2825] | – | – | activity and specificity of inhibition compared with the original MyD88 inhibitory peptide (MyD88): maintained the same activity and specificity of inhibition
4 | CC[C@]1(O)C[C@@H]2CN(CCc3c([nH]c4ccccc34)[C@@](C(=O)OC)(c3cc4c(cc3OC)N(C)[C@H]3[C@@](O)(C(=O)OC)[C@H](OC(C)=O)[C@]5(CC)C=CCN6CC[C@]43[C@@H]65)C2)C1 [Vinblastine] | – | did not impair | –
5 | SEQ ID NO:1: Peptide with TQT triplet followed by α-helix residues; leucine residues substituted into lysine to increase charge (SQGTQTKAKQK; listed as Homo sapiens) | induced an increase in autophagy | – | p62 protein levels (HEK293 cells; 100-200 μM, Western blot (FIG. 6A)): decrease; shorter isoform of LC3 (HEK293 cells; 100-200 μM, Western blot (data not shown)): increase
6 | ULK1 wild type, myc-tagged (immunopurified complex) | – | – | in vitro kinase assay (32P labelling, autoradiography) [1]: AMBRA1 is phosphorylated by an ULK1 immunopurified complex
